Measured values from patent publication US20220233566A1, “NOVEL CARBONATE COMPOUND HAVING PYRROLOPYRIMIDINE SKELETON OR PHARMACEUTICALLY ACCEPTABLE SALT THEREOF” (TAIHO PHARMACEUTICAL CO., LTD., priority 2019, published 2022).

How the values were obtained:
[1] = system: human brain tumor cell line (U-87 MG); assay: Evaluation 1 of antitumor effect and toxicity in mouse (U-87 MG subcutaneous transplant); format: in vivo, BALB/cA Jcl-nu/nu mice; conditions: oral every day; Comparative Example 2 12 mg/kg/day, Example 1 15.4 mg/kg/day
Method: The day of grouping mice was determined Day 0.
IRs of Comparative Example 2-compound administration group and Example 1-compound administration group on the final day of evaluation (Day 6 in Comparative Example 2 and Day 13 in Example 1) are shown in FIG. 1 and BWC versus elapsed days is shown in FIG. 2.

[2] = system: human brain tumor cell line (U-87 MG); assay: Combinational effect of compound and temozolomide (TMZ), cell viability (crystal violet); format: cell-based; conditions: any order (same-day, compound first, TMZ first), Student's t-test
Method: A human brain tumor cell line (U-87 MG) was suspended in a medium, seeded in individual wells of a multi-well plate and cultured. In the case where two compounds are simultaneously added, both compounds were added on two days after initiation of culture. In the case where addition of the compound of the present invention preceded, a serially diluted solution of the compound was added on the day after initiation of culture and a serially diluted solution of TMZ was added two days after initiation of culture. In the case where addition of TMZ preceded, a serially diluted solution of TMZ was added on the day after initiation of culture and a serially diluted solution of the compound was added on two days after initiation of culture. Day 5 after seeding, cells were fixed with a 25% aqueous solution of glutaraldehyde and stained with a staining fluid (0.05 w/v % crystal violet in 20% methanol). After an extract (0.1 N NaH2PO4: 100% ethanol=1:1) was added and stirred, an absorbance at 540 nm was measured to obtain a cell count. The cell viability was calculated in accordance with the following equation and statistically processed in accordance with a Student's t-test.
T: Absorbance of a well containing TMZ or a compound
C: Absorbance of a well containing neither TMZ nor a compound

MOLT4 = assay: Growth suppression activity in human tumor cell line; format: cell-based; conditions: MOLT-4, 72 h; Human hematopoietic organ tumor, MOLT4, 3 days
Method: (§1) Human tumor cell lines different in type were suspended in mediums, seeded in individual wells of a multi-well plate and cultured. On the day after initiation of culture, serially diluted solutions of a compound were added. Culture was carried out for further 3 days. Cells were counted by a CellTiter-Glo (manufactured by Promega KK) in accordance with the protocol recommended by Promega KK. Cell viability was calculated in accordance with the equation shown below and the concentration (IC50 (μM)) of the compound at which 50% of cell growth is inhibited was obtained.
(§2) T: Intensity of light emitted from a well containing a compound
(§3) C: Intensity of light emitted from a well containing no compound

H1703 = assay: as above; format: cell-based; conditions: NCI-H1703, 72 h; Human lung cancer, H1703, 3 days
Method: as §1, §2, §3

H69 = assay: as above; format: cell-based; conditions: NCI-H69, 72 h; Human lung cancer, H69, 3 days
Method: as §1, §2, §3

DLD1 = assay: as above; format: cell-based; conditions: DLD-1, 72 h; Human colorectal cancer, DLD1, 3 days
Method: as §1, §2, §3

A172 = assay: as above; format: cell-based; conditions: A 172, 72 h; Human brain tumor, A172, 3 days
Method: as §1, §2, §3

MV-4-11 = assay: as above; format: cell-based; conditions: MV4-11, 72 h; Human hematopoietic organ tumor, MV-4-11, 3 days
Method: as §1, §2, §3

CCRFCEM = assay: as above; format: cell-based; conditions: CCRF-CEM, 72 h, Human hematopoietic organ tumor, 3 days
Method: as §1, §2, §3

CFPAC1 = assay: as above; format: cell-based; conditions: CFPAC-1, 72 h; Human pancreatic cancer, CFPAC1, 3 days
Method: as §1, §2, §3

HT29 = assay: as above; format: cell-based; conditions: HT-29, 72 h; Human colorectal cancer, HT29, 3 days
Method: as §1, §2, §3

LN229 = assay: as above; format: cell-based; conditions: LN-229, 72 h; Human brain tumor, LN229, 3 days
Method: as §1, §2, §3

MIAPACA2 = assay: as above; format: cell-based; conditions: MIA PaCa-2, 72 h; Human pancreatic cancer, MIAPACA2, 3 days
Method: as §1, §2, §3

HCT116 = assay: as above; format: cell-based; conditions: HCT-116, 72 h; Human colorectal cancer, HCT116, 3 days
Method: as §1, §2, §3

MKN45 = assay: as above; format: cell-based; conditions: MKN-45, 72 h; Human stomach cancer, MKN45, 3 days
Method: as §1, §2, §3

[3] = Presence of prodrug in mouse and absorbency (plasma AUC after oral administration); format: in vivo; conditions: male, Balb/cA, mouse, 7.6 umol/kg, mice, 7.6 μmol/kg, administered compound itself in plasma, read-out: AUC0-6hr
Method: The dosage amounts of the compounds of Comparative Examples 1 to 5 and Examples 1 to 26 are those (mole/10 mL/kg) shown in Tables. Solutions for administration were prepared with an 0.5% aqueous solutions of HPMC so as to satisfy the dosage amounts.
Note that, the “amount of mole/10 mL/kg” means as follows: for example “10 mmol/10 mL/kg” means that 10 mmol of a test compound per body-weight (1 kg) of a mouse was dispersed or dissolved in a solution (10 mL) for administration. The same applies hereinafter.
The solutions for administration prepared above were orally administered to mice (Balb/cA, male) not fasted each by use of an oral administration sonde.
The mice were anesthetized with isoflurane 0.5, 1, 2, 4 and 6 hours after administration and blood was taken from the facial vein by use of a specific needle (animal lancet) and a heparin-coated hematocrit tube.
The blood sampled was immediately centrifuged (13000 rpm, 2 minutes, 4° C.) to prepare the plasma samples. After proteins were removed from the plasma samples, the concentrations of the test compound in the plasma samples were measured by LC/MS/MS.
The value of “area under the curve” (AUC) of drug concentration in blood versus time was calculated using analysis software such as Phoenix (registered trademark) WinNonlin (registered trademark).
In Table 3, “Comparative Example 1” and “Comparative Example 2” represent the “compound (Br form) of Comparative Example 1” and the “compound (I form) of Comparative Example 2”, respectively. In Table 4, “Comparative Example 6” represents the “compound (C1 form) of Comparative Example 6”.

[4] = system: human brain tumor cell line (U-87 MG); assay: Combination use of compound and radiation, cell viability (crystal violet); format: cell-based; conditions: any order (same-day, compound first, radiation first), Student's t-test
Method: A human brain tumor cell line (U-87 MG) was suspended in a medium, seeded in individual wells of a multi-well plate and cultured. In the case where radiation exposure and addition of a compound are simultaneously carried out, both treatments were carried out on two days after initiation of culture. In the case where addition of a compound preceded radiation exposure, a serially diluted solution of a compound was added on the day after initiation of culture and radiation exposure was carried out on two days after initiation of culture. In the case where radiation exposure preceded addition of a compound, radiation exposure was carried out on the day after initiation of culture and a serially diluted solution of a compound was added on the two days after initiation of culture. Day 5 after seeding, cells were fixed with a 25% aqueous solution of glutaraldehyde and stained with a staining fluid (0.05 w/v % crystal violet in 20% methanol). After an extract (0.1 N NaH2PO4: 100% ethanol=1:1) was added and stirred, an absorbance at 540 nm was measured to obtain a cell count. The cell viability was calculated in accordance with the following equation and statistically processed in accordance with a Student's t-test.
T: Absorbance of a well exposed to radiation or containing a compound
C: Absorbance of a well neither exposed to radiation nor containing a compound

H520 = assay: Growth suppression activity to human tumor cell line (Evaluation 3); format: cell-based; conditions: NCI-H520, 72 h; Human lung cancer, H520, 3 days
Method: as §1, with “(IC50 (nM))” for “(IC50 (μM))”, “of a” for “of the”
as §2, §3

A427 = assay: as above; format: cell-based; conditions: A-427, 72 h; Human lung cancer, A427, 3 days
Method: as §1, with “(IC50 (nM))” for “(IC50 (μM))”, “of a” for “of the”
as §2, §3

## Nc1ncnc2c1c(I)cn2[C@@H]1O[C@H](CO)[C@@H](O)[C@@H]1F [Comparative Example 2, (2R,3R,4S,5R)-5-(4-amino-5-iodo-7H-pyrrolo[2,3-d]pyrimidin-7-yl)-4-fluoro-2-(hydroxymethyl) tetrahydrofuran-3-ol]
[1]
  final day of evaluation (administration continued as long as weight loss was acceptable, until 20% or more): 6 days
[2]
  cell viability, combination treatment with TMZ compared to the single treatments: significant decrease in cell viability
MOLT4
  IC50: 10 nM
H1703
  IC50: 40 nM
H69
  IC50: 60 nM
DLD1
  IC50: 40 nM
A172
  IC50: 30 nM
MV-4-11
  IC50: 4 nM
CCRFCEM
  IC50: 40 nM
CFPAC1
  IC50: 50 nM
HT29
  IC50: 130 nM
LN229
  IC50: 20 nM
MIAPACA2
  IC50: 40 nM
HCT116
  IC50: 90 nM
MKN45
  IC50: 130 nM
[3]
  AUC(0-t): 0.21 µM·h
[4]
  cell viability, combination treatment with radiation exposure compared to the single treatments: cell viability significantly decreased
H520
  IC50: 29 nM
A427
  IC50: 98 nM
